The text below walks through data of ChEMBL document CHEMBL2346624, “Pyrrolopyrazines as selective spleen tyrosine kinase inhibitors” (J Med Chem, 2013).

Data set [1] is described as follows: Metabolic stability in human liver microsomes. The format is ADME, Microsome. To be noted: read-out: Stability. In general terms: Liver microsomes are vesicles of endoplasmic reticulum, rich in cytochrome P450 enzymes.
A short description of data set [2]: Metabolic stability in rat liver microsomes. Format: ADME, Microsome. To be noted: read-out: Stability.
Data set [3] is described as follows: Aqueous solubility of the compound by lyophilisate solubility assay. Format: physicochemical. The following applies: buffer.
A further data set deals with Liver microsomes. Kind of data set: Metabolic stability in human liver microsomes assessed as GSH adduct formation. Format: ADME, Microsome.

In brackets after ≈: the same amount, converted by molar mass.

In the case of `CC(C)(C)NC(=O)c1c[nH]c2ncc(-c3n[nH]c4ccc(OC(F)F)cc34)nc12`, the CLhep predicted in data set [1] is 10 mL/min/kg; in data set [2] it was 30 mL/min/kg. Also, the solubility in data set [3] is less than 1 µg/mL. The Stability result in the data set on Liver microsomes is given as “Stable”.
The corresponding values for `NC(=O)c1cnc(N[C@@H]2CCCC[C@@H]2N)nc1Nc1cccc(-n2nccn2)c1` are 3 mL/min/kg, 10 mL/min/kg, less than 1 µg/mL and “Stable”.
On to `CN(C)CCCn1nc(-c2cnc3[nH]cc(C(=O)NC(C)(C)C)c3n2)c2cc(OC(F)F)ccc21`, for which the results for the CLhep predicted in data set [1] and in data set [2] were 9 mL/min/kg and 46 mL/min/kg, respectively. The molecule also showed a solubility in data set [3] of less than 1 µg/mL. In addition, the Stability entry in the data set with Liver microsomes was “Stable”.
As for `CC(C)(C)NC(=O)c1c[nH]c2ncc(-c3n[nH]c4c(CO)cccc34)nc12`, the CLhep predicted in data set [1] is 7 mL/min/kg; in data set [2], 51 mL/min/kg. The solubility in data set [3] was less than 1 µg/mL.
With `C[C@@H](CO)NC(=O)c1c[nH]c2ncc(-c3nn(C)c4cc(Cl)ccc34)nc12`, the CLhep predicted in data set [1] was 16 mL/min/kg; in data set [2] it was 47 mL/min/kg. The molecule also had a solubility in data set [3] of less than 1 µg/mL. Also, the Stability entry with Liver microsomes is given as “Stable”.
On to `CN(C)CCCn1nc(-c2cnc3[nH]cc(C(=O)NC(C)(C)CO)c3n2)c2cc(OC(F)F)ccc21`, for which the CLhep predicted was 12 mL/min/kg in data set [1] and 41 mL/min/kg in data set [2]. Besides, in data set [3], the solubility turned out to be 586 µg/mL (≈ 1170 µM).
For `CC(C)(C)NC(=O)c1c[nH]c2ncc(-c3nn(CCCS(C)(=O)=O)c4cc(F)ccc34)nc12`, the results for the CLhep predicted in data set [1] and in data set [2] were 8 mL/min/kg and 43 mL/min/kg, respectively. In data set [3], this molecule came in with a solubility of less than 1 µg/mL.
`CC(C)NC(=O)c1c[nH]c2ncc(-c3nn(C)c4c3CC(C)(C)CC4)nc12`: the CLhep predicted is 19 mL/min/kg in data set [1] and 50 mL/min/kg in data set [2]. This molecule showed a solubility in data set [3] of less than 1 µg/mL.
As for `COc1ccc(Nc2nc(-c3cccc(C(=O)Nc4ccc(C(=O)O)cc4)c3)nc3scnc23)cc1OC`, the solubility in data set [3] is less than 1 µg/mL.
For the molecule `CC(C)(C)NC(=O)c1c[nH]c2ncc(-c3nn(CCC(O)CO)c4cc(F)ccc34)nc12` (stereo unspecified), the figures for the CLhep predicted in data set [1] and in data set [2] were 4 mL/min/kg and 23 mL/min/kg, respectively. The solubility in data set [3] was less than 1 µg/mL.
In the same order, the values of `Cn1nc(-c2cnc3[nH]cc(C(=O)N[C@H]4C[C@H](O)C4)c3n2)c2ccc(F)cc21` are 17 mL/min/kg, 43 mL/min/kg and less than 1 µg/mL.
`CC(C)(CO)NC(=O)c1c[nH]c2ncc(-n3ncc4ccc(Cl)cc43)nc12`: the CLhep predicted in data set [1] was 14 mL/min/kg; in data set [2], 35 mL/min/kg. In addition, the solubility in data set [3] was less than 1 µg/mL. Further, the Stability entry with Liver microsomes was “Stable”.
In the case of `Cn1nc(-c2cnc3[nH]cc(C(=O)NC(C)(C)C)c3n2)c2cc(OC(F)F)ccc21`, the CLhep predicted was 18 mL/min/kg in data set [1] and 51 mL/min/kg in data set [2]. In data set [3], this molecule displayed a solubility of less than 1 µg/mL.
In the case of `COc1cc(Nc2ncc(F)c(Nc3ccc4c(n3)N(COP(=O)(O)O)C(=O)C(C)(C)O4)n2)cc(OC)c1OC` [FOSTAMATINIB], the CLhep predicted was 18 mL/min/kg in data set [1] and 47 mL/min/kg in data set [2]. In data set [3], this molecule had a solubility of less than 1 µg/mL. The Stability entry in the data set with Liver microsomes is recorded as “Unstable”.
Take `CC(C)(C)NC(=O)c1c[nH]c2ncc(-c3nn(CCC(O)CO)c4ccc(OC(F)F)cc34)nc12` (stereo unspecified): the CLhep predicted in data set [1] is 8 mL/min/kg; in data set [2], 49 mL/min/kg. The same molecule came in with a solubility in data set [3] of less than 1 µg/mL.
Turning to `COc1ccc2cnn(-c3cnc4[nH]cc(C(=O)NC(C)(C)C)c4n3)c2c1`, the CLhep predicted was 11 mL/min/kg in data set [1] and 37 mL/min/kg in data set [2]. Further, in data set [3], the solubility is less than 1 µg/mL.
As to `CC(C)(C)NC(=O)c1c[nH]c2ncc(-c3nn(C4CCNCC4)c4cc(F)ccc34)nc12`, the CLhep predicted in data set [1] is 3 mL/min/kg; in data set [2], 6 mL/min/kg. This molecule had a solubility in data set [3] of less than 1 µg/mL. For the same molecule, in the data set on Liver microsomes, the Stability entry was “Stable”.

Usually solubility stands for the dissolved amount per volume that the medium holds. A higher solubility goes with a readily soluble substance.
